In patent publication US7985731B2, “Sugar chain added GLP-1 peptide” (Otsuka Chemical Holdings Co., Ltd., priority 2007, dated 2011):

What was measured:
[1] = test system: C57BL/6JJcl mice; test: Test Example 7: Oral Glucose Tolerance Test (OGTT); format: in vivo
Protocol: After 30 minutes, a glucose solution was orally administered at a dose of 1 mg/g. Blood was collected from the orbits before the glucose administration and 30 minutes, 60 minutes and 120 minutes after the glucose administration. Blood-sugar levels were measured using ACCU-CHEK Aviva (Roche Diagnostics).
After the oral administration of the glucose solution to the mice fasted overnight, blood was collected over time, and blood-sugar levels were measured.
The correlation between the oligosaccharide chain structure and the activity was studied in mouse OGTT.

[2] = molecular target: T1, mouse GLP-1 receptor (Mus musculus, UniProt O35659); test: Test Example 6: ability to synthesize cAMP in mouse GLP-1 receptor-expressing CHO-K1 cells; format: cell-based
T1 construct: expressed in transfected cells
T1 sequence (O35659 22-463): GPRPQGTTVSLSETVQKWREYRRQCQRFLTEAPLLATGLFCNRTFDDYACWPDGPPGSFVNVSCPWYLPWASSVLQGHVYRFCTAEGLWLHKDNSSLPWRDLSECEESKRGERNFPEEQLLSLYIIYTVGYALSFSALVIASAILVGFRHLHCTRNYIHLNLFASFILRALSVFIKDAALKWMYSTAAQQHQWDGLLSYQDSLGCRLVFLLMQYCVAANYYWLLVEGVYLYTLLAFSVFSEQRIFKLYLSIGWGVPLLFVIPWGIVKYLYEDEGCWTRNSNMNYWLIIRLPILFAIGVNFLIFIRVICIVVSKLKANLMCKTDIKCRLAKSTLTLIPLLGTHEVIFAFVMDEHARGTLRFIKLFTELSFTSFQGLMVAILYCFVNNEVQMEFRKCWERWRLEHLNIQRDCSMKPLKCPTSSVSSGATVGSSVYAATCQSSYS
Protocol: 1. Construction of Mouse GLP-1 Receptor-Expressing Vector
A mouse GLP1 receptor sense primer (5′-[…]-3′) (SEQ ID NO: 152) and a mouse GLP-1 receptor antisense primer (5′-[…]-3′) (SEQ ID NO: 153) capable of binding to the 5′ and 3′ ends of mouse GLP-1 receptor cDNA were separately synthesized. PCR was performed using Ex Taq polymerase (TaKaRa) with cDNA (Clone ID: 40046534, Open Biosystems) as a template. Specifically, 50 μL in total of reaction solution consisting of 1 μL of template cDNA (10 ng/μL), 4 μL of 2.5 mM dNTPs, 1 μL of primer solution mixtures (each 50 μM), 5 μL of ×10 Ex Taq polymerase Buffer, 0.25 μL of Ex Taq polymerase and 38.75 μL of sterilized water was used and allowed to react by 94° C. for 1 minute; 94° C. for 45 seconds, 55° C. for 1 minute and 72° C. for 2 minutes (35 cycles); and 72° C. for 10 minutes. The PCR reaction product was electrophoresed on 1% agarose gel, and the cDNA fragment was purified using Wizard SV Gel and PCR Clean-up System (Promega) and treated with restriction enzymes (EcoRI and NheI) to obtain mouse GLP-1 receptor cDNA.
To efficiently obtain cells highly expressing a mouse GLP-1 receptor, a pIRES-gfp vector was used as an expression vector. This vector was prepared by inserting, to a vector pEGFP-N1 (Clontech), an IRES gene-containing DNA fragment obtained by the restriction enzyme treatment (Sal I and BamHI) of pIRESpuro2 (Clontech).
The mouse GLP-1 receptor cDNA fragment was inserted to pIRES-gfp to thereby obtain a mouse GLP-1 receptor-expressing vector mGLP-1R/pIRES-gfp. The DNA sequence of the obtained vector was confirmed using ABI3100-Avant (Applied Biosystems).
2. Preparation of Mouse GLP-1 Receptor-Expressing CHO-K1 Cells
CHO-K1 cells (ATCC catalog No. CCL-61) were transfected with the obtained mGLP-1R/pIRES-gfp using FuGENE (registered trademark) (Roche) according to the instruction manual. The transfected CHO-K1 cells were cultured in RPMI1640 medium (Wako Pure Chemical Industries) containing 10% FCS (Hyclone) and penicillin-streptomycin (SIGMA). Drug selection was conducted by the addition of 1.0 mg/ml G418 (Wako Pure Chemical Industries). The drug resistance cells were sorted with a cell sorter (EPICS ALTRA, Beckman Coulter) using a GFP expression level as an index. After the sorting, the limiting dilution method was conducted to obtain cells highly expressing GFP, namely, cells highly expressing a mouse GLP-1 receptor. The obtained cells were used as mouse GLP-1 receptor-expressing CHO-K1 cells in the experiment shown below.
3. Analysis of Agonist Effect of Oligosaccharide Chain Added GLP-1 Peptide (Ability to Synthesize cAMP)
The mouse GLP-1 receptor-expressing CHO-K1 cells prepared in the preceding paragraph 2 were used to evaluate the agonist effect of the oligosaccharide chain added GLP-1 peptide using the ability to synthesize cAMP as an index.
The mouse GLP-1 receptor-expressing CHO-K1 cells were suspended at a concentration of 5×10^5 cells/ml in RPMI1640 medium containing 10% FCS. The cell suspension was seeded at a concentration of 100 μL per well to a flat-bottomed 96-well plate (Falcon) and cultured at 5% CO2 at 37° C. for 16 hours. The culture supernatant was discarded. The oligosaccharide chain added GLP-1 peptide dissolved in Krebs Ringer bicarbonate Buffer containing 2.5 mM glucose was added at a concentration of 100 μL/well and cultured at 37° C. for 30 minutes. The culture supernatant was immediately discarded. The amount of cAMP synthesized in the mouse GLP-1 receptor-expressing CHO-K1 cells was measured using cAMP ELISA Kit (GE Healthcare or Cayman) and used as an index for the agonist effect of the oligosaccharide chain added GLP-1 peptide on mouse GLP-1 receptors.
GLP-1 increases intracellular cAMP concentrations through the binding to its receptor and promotes insulin secretion. Thus, the activity of the oligosaccharide chain added GLP-1 peptide was evaluated using the ability to synthesize cAMP as an index. […]

[3] = test system: db/db (BKS.Cg-+Lepr db/+Lepr db/Jcl) mice; test: Test Example 8: effect of lowering blood-sugar levels in diabetes model mice; format: in vivo; details: 9 nmol/kg intraperitoneal
Protocol: The oligosaccharide chain added GLP-1 peptide prepared in Example 2, 3, 4, 21 or 23 or the GLP-1 prepared in Comparative Example 1 in a PBS solution (9 nmol/10 ml) was intraperitoneally administered at a dose of 10 ml/kg to BKS.Cg−+Lepr^db/+Lepr^db/Jcl mice (10 week old, male). Blood was collected from the orbits before the compound administration and 30 minutes, 60 minutes, 120 minutes, 180 minutes and 300 minutes after the compound administration. Blood-sugar levels were measured using ACCU-CHEK Aviva (Roche Diagnostics).
The db/db (BKS.Cg−+Lepr^db/+Lepr^db/Jcl) mice serving as diabetes model mice have a mutation in a receptor of leptin which is anorexigenic/energy metabolism-accelerating hormone and develops conditions such as obesity or hyperglycemia.
Blood-sugar levels were measured over time, and their effects of lowering blood-sugar levels were compared with that of the GLP-1 without oligosaccharide chain addition of Comparative Example 1.

[4] = 9 nmol/kg intraperitoneal 30 minutes before glucose 1 mg/g oral

| SMILES | activity of suppressing rise in blood-sugar levels in OGTT ([1]; 0.09 nmol/kg intraperitoneal) | effect of suppressing rise in blood-sugar levels in OGTT ([1]; 0.9 nmol/kg intraperitoneal) | effect of suppressing rise in blood-sugar levels in OGTT [1, 4] | dose dependence of activity of suppressing rise in blood-sugar levels in OGTT ([1]; doses 0.9 nmol/kg and 0.09 nmol/kg intraperitoneal) | activity of suppressing rise in blood-sugar levels in OGTT relative to GLP-1 (times) ([1]; from doses giving equivalent effect, GLP-1 at 9 nmol/kg) | cAMP synthesis activity compared with GLP-1 (in words) [2] | effect of lowering blood-sugar levels in db/db mice ([3]; 10-week-old male mice) | durability of effect of lowering blood-sugar levels in db/db mice ([3]; up to 300 minutes) |
| --- | --- | --- | --- | --- | --- | --- | --- | --- |
| CC[C@H](C)[C@H](NC(=O)[C@H](Cc1ccccc1)NC(=O)[C@H](CCC(=O)O)NC(=O)[C@H](CCCCN)NC(=O)[C@H](C)NC(=O)[C@H](C)NC(=O)[C@H](CCC(N)=O)NC(=O)CNC(=O)[C@H](CCC(=O)O)NC(=O)[C@H](CC(C)C)NC(=O)[C@H](Cc1ccc(O)cc1)NC(=O)[C@H](CO)NC(=O)[C@H](CO)NC(=O)[C@@H](NC(=O)[C@H](CC(=O)O)NC(=O)[C@H](CO)NC(=O)[C@@H](NC(=O)[C@H](Cc1ccccc1)NC(=O)[C@@H](NC(=O)CNC(=O)[C@H](CCC(=O)O)NC(=O)[C@H](C)NC(=O)[C@@H](N)Cc1c[nH]cn1)[C@@H](C)O)[C@@H](C)O)C(C)C)C(=O)N[C@@H](C)C(=O)N[C@@H](Cc1c[nH]c2ccccc12)C(=O)N[C@@H](CC(C)C)C(=O)N[C@H](C(=O)N[C@@H](CCCCN)C(=O)NCC(=O)N[C@@H](CSCC(=O)N[C@@H]1O[C@H](CO)[C@@H](O[C@@H]2O[C@H](CO)[C@@H](O[C@@H]3O[C@H](CO[C@H]4O[C@H](CO)[C@@H](O)[C@H](O)[C@@H]4O[C@@H]4O[C@H](CO)[C@@H](O[C@@H]5O[C@H](CO[C@]6(C(=O)O)C[C@H](O)[C@@H](NC(C)=O)[C@H]([C@H](O)[C@H](O)CO)O6)[C@H](O)[C@H](O)[C@H]5O)[C@H](O)[C@H]4NC(C)=O)[C@@H](O)[C@H](O[C@H]4O[C@H](CO)[C@@H](O)[C@H](O)[C@@H]4O[C@@H]4O[C@H](CO)[C@@H](O[C@@H]5O[C@H](CO[C@]6(C(=O)O)C[C@H](O)[C@@H](NC(C)=O)[C@H]([C@H](O)[C@H](O)CO)O6)[C@H](O)[C@H](O)[C@H]5O)[C@H](O)[C@H]4NC(C)=O)[C@@H]3O)[C@H](O)[C@H]2NC(C)=O)[C@H](O)[C@H]1NC(C)=O)C(=O)NCC(=O)O)C(C)C [Example 4, 36Cys GLP-1-disialo] | equivalent to that of the GLP-1 at a dose of 9 nmol/kg | suppressed rise in blood-sugar levels almost completely | strong effect of suppressing rise in blood-sugar levels | dose-dependent activity of suppressing rise in blood-sugar levels | about 100 times | activity equal to or more than that of the GLP-1 | strong effect of lowering blood-sugar levels | blood-sugar levels were kept at low levels after 300 minutes |
| CC[C@H](C)[C@H](NC(=O)[C@H](Cc1ccccc1)NC(=O)[C@H](CCC(=O)O)NC(=O)[C@H](CCCCN)NC(=O)[C@H](C)NC(=O)[C@H](C)NC(=O)[C@H](CCC(N)=O)NC(=O)CNC(=O)[C@H](CCC(=O)O)NC(=O)[C@H](CC(C)C)NC(=O)[C@H](Cc1ccc(O)cc1)NC(=O)[C@H](CO)NC(=O)[C@H](CO)NC(=O)[C@@H](NC(=O)[C@H](CC(=O)O)NC(=O)[C@H](CO)NC(=O)[C@@H](NC(=O)[C@H](Cc1ccccc1)NC(=O)[C@@H](NC(=O)CNC(=O)[C@H](CCC(=O)O)NC(=O)[C@H](C)NC(=O)[C@@H](N)Cc1c[nH]cn1)[C@@H](C)O)[C@@H](C)O)C(C)C)C(=O)N[C@@H](C)C(=O)N[C@@H](Cc1c[nH]c2ccccc12)C(=O)N[C@@H](CC(C)C)C(=O)N[C@H](C(=O)N[C@@H](CSCC(=O)N[C@@H]1O[C@H](CO)[C@@H](O[C@@H]2O[C@H](CO)[C@@H](O[C@@H]3O[C@H](CO[C@H]4O[C@H](CO)[C@@H](O)[C@H](O)[C@@H]4O[C@@H]4O[C@H](CO)[C@@H](O[C@@H]5O[C@H](CO)[C@H](O)[C@H](O)[C@H]5O)[C@H](O)[C@H]4NC(C)=O)[C@@H](O)[C@H](O[C@H]4O[C@H](CO)[C@@H](O)[C@H](O)[C@@H]4O[C@@H]4O[C@H](CO)[C@@H](O[C@@H]5O[C@H](CO)[C@H](O)[C@H](O)[C@H]5O)[C@H](O)[C@H]4NC(C)=O)[C@@H]3O)[C@H](O)[C@H]2NC(C)=O)[C@H](O)[C@H]1NC(C)=O)C(=O)NCC(=O)N[C@@H](CCCNC(=N)N)C(=O)NCC(=O)O)C(C)C [Example 27, 34Cys GLP-1-asialo] |  |  | strong effect of suppressing rise in blood-sugar levels |  |  | activity equal to or more than that of the GLP-1 |  |  |
